We go through 9 molecules from US20070197524A1, “Fluorenes and carbazoles as ligands of the EP2 receptor” (priority 2005, published 2007).

For experiment [1], the target named is T1, human prostaglandin E2 (subtype EP2) receptor (Homo sapiens, UniProt P43116).
T1 construct: host or cells: cells in a cell culture plate
Kind of experiment: cAMP agonism assay (HTRF cAMP detection). In kind it is cell-based. The following applies: cAMP agonism test; read-out: Agonism [ED50, μm]. As to the method:
(§1) The binding of PGE2 to the EP2 subtype of the human PGE2 receptor induces activation of membrane-associated adenylate cyclases and leads to the formation of cAMP. In the presence of the phosphodiesterase inhibitor IBMX, cAMP which has accumulated due to this stimulation and been released by cell lysis is employed in a competitive detection method. In this assay, the cAMP in the lysate competes with cAMP-XL665 for binding of an Eu cryptate-labelled anti-cAMP antibody.
(§2) The two signals are measured in a suitable measuring instrument with a time lag, i.e. after the background fluorescence has declined.
1.2.2 Agonism Assay (Data for Each Well of a 384-Well Plate):
(§3) The substance solutions (0.75 μl) introduced into an assay plate and 30% DMSO are dissolved in 16 μl of a KRSB+IBMX stimulation solution (1×Krebs-Ringer Bicarbonate Buffer; Sigma-Aldrich # K-4002; including 750 μM 3-isobutyl-1-methylxanthine Sigma-Aldrich # I-7018), and then 15 μl thereof are transferred into a media-free cell culture plate which has been washed with KRSB shortly beforehand.
After incubation at room temperature (RT; volume: ˜15 μl) for 60 minutes, the reaction is then stopped by adding 5 μl of lysis buffer and incubated at RT for a further 20 min (volume: ˜20 μl). The cell lysate is then transferred into a measuring plate and measured in accordance with the manufacturer's information (cyclic AMP kit Cisbio International # 62AMPPEC).
In general terms: In TR-FRET formats the signal depends on donor and acceptor labels being close together.

For experiment [2], the target named is T1, human prostaglandin E2 (subtype EP2) receptor. Nature of the experiment: cAMP antagonism assay (HTRF cAMP detection, in presence of PGE2). In kind it is cell-based. As to conditions: cAMP antagonism test.
Excerpt: 1. Detection of the Antagonism of the Human Prostaglandin E2 (Subtype EP2) Receptor Signal
1.1 Principle of Detection
as §1, §2
1.2.1 Antagonism Assay (Data for Each Well of a 384-Well Plate):
as §3
After preincubation at room temperature (RT) for 30 minutes, 5 μl of a 4×PGE2 solution (11 nM) are added, and incubation is carried out in the presence of the agonist at RT for a further 60 min (volume: ˜20 μl) before the reaction is then stopped by adding 5 μl of lysis buffer and incubated at RT for a further 20 min (volume: ˜25 μl). The cell lysate is then transferred into a measuring plate and measured in accordance with the manufacturer's information (cyclic AMP kit Cisbio International # 62AMPPEC).

The next experiment deals with cumulus-oocyte complexes. Nature of the experiment: Cumulus expansion assay in vitro. In kind it is cell-based, mice. As to conditions: concentration of 100-200 μm; test substances compete with PGE2. As to the method:
2.2 Cumulus Expansion Assay in Vitro
Folliculogenesis is induced in immature female mice (strain: CD1 (ICR) from Charles River) at an age of 14-18 days by a single dose (intraperitoneal) of 10 I.U. of PMSG (Pregnant Mare Serum Gonadotropin; Sigma G-4877, Lot 68H0909). 47-50 hours after the injection, the ovaries are removed and the cumulus-oocyte complexes are removed. The cumulus complex is not yet expanded at this stage.
The cumulus-oocyte complexes are then incubated with prostaglandin E2 (PGE2) (1 μM), vehicle control (ethanol) or test substances for 20-24 hours. Medium: alpha-MEM medium with 0.1 mM IBMX, pyruvates (0.23 mM) glutamines (2 mM), pen/strep 100 IU/ml pen. and 100 μg/ml strep. and HSA (8 mg/ml). Cumulus expansion is then established through the division into four stages (according to Vanderhyden et al. Dev Biol. 1990 August; 140 (2):307-317).

T1 sequence (P43116 whole entry): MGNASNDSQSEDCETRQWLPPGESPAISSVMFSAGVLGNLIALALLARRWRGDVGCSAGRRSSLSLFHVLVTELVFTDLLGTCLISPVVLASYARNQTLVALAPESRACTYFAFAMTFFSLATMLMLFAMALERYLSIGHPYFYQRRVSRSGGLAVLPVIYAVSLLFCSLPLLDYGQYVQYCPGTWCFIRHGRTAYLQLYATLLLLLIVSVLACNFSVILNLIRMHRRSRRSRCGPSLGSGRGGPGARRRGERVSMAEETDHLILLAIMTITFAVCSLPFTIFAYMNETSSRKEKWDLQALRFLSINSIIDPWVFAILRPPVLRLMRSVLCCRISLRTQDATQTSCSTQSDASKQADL

As to `O=C(O)Cn1c2ccccc2c2ccc(OCCCCOc3ccc(-n4cccc4)cc3)cc21` [XIII/22, {2-[4-(4-pyrrol-1-ylphenoxy)butoxy]carbazol-9-yl}acetic acid], in experiment [1], the EC50 was above 19 µM. Further, the IC50 (in general, the concentration that gives 50% inhibition) in experiment [2] came to 1.2 µM.
With `O=C(O)Cn1c2ccccc2c2ccc(OCCCOc3ccccc3)cc21` [XIII/85, [2-(3-phenoxypropoxy)carbazol-9-yl]acetic acid], the EC50 in experiment [1] is above 19 µM. Besides, the IC50 in experiment [2] is 6.7 µM.
Take `CC(=O)c1cccc(OCCCCOc2ccc3c4ccccc4n(CC(=O)O)c3c2)c1` [XIII/12, {2-[4-(3-acetylphenoxy)butoxy]carbazol-9-yl}acetic acid]: the EC50 in experiment [1] was above 19 µM. In addition, the concentration for half-maximal inhibition (IC50) in experiment [2] was found to be 6.3 µM.
As for `O=C(O)Cn1c2ccccc2c2ccc(OCCCCCOc3ccccc3)cc21` [XIII/140, [2-(5-phenoxypentyloxy)carbazol-9-yl]acetic acid], the EC50 in experiment [1] is above 19 µM. Also, the IC50 in experiment [2] worked out at 6.7 µM.
Take `O=C(O)CCn1c2ccccc2c2ccc(OCCCCOc3ccc4c(c3)CCC(=O)N4)cc21` [XIII/67, 3-{2-[4-(2-oxo-1,2,3,4-tetrahydroquinolin-6-yloxy)butoxy]carbazol-9-yl}propionic acid]: the EC50 in experiment [1] is above 19 µM. Further, the half-maximal inhibitory concentration (IC50) in experiment [2] was 3.2 µM.
For `CC(C)Oc1ccc2c(=O)c3cc(C(=O)O)ccc3oc2c1` [AH6809, reference compound], the EC50 in experiment [1] is above 19 µM. For the same molecule, the IC50 in experiment [2] is above 19 µM. Moreover, the “suppression of cumulus expansion” value in the experiment with cumulus-oocyte complexes is recorded as “about 20%”.
Turning to `CCOC(=O)Cn1c2ccccc2c2ccc(OCCCCOc3cccc(C(=O)OC)c3)cc21` [XII/5, Methyl 3-[4-(9-ethoxycarbonylmethyl-9H-carbazol-2-yloxy)butoxy]benzoate], the EC50 in experiment [1] was found to be 6.3 µM. Further, in experiment [2], the concentration for half-maximal inhibition (IC50) was above 19 µM.
On to `O=C(O)CC1c2ccccc2-c2ccc(OCCCCOc3cccc(O)c3)cc21` (racemic) [VI/3, (R/S) {2-[4-(3-Hydroxyphenoxy)butoxy]-9H-fluoren-9-yl}acetic acid], for which, in experiment [1], the EC50 is above 19 µM. For the same molecule, the IC50 in experiment [2] stood at 6.4 µM. Also, the “suppression of cumulus expansion” value in the experiment on cumulus-oocyte complexes is recorded as around 50%.
For the molecule `CC(=O)Nc1cccc(OCCCCOc2ccc3c(c2)C(CC(=O)O)c2ccccc2-3)c1` (racemic) [VI/4, (R/S) {2-[4-(3-Acetylaminophenoxy)butoxy]-9H-fluoren-9-yl}acetic acid], the EC50 in experiment [1] amounted to 6.3 µM. Also, the IC50 in experiment [2] is above 19 µM.
